{"source": "patent US6680058B1", "about": "“Compositions and methods for contraception in or sterilization of mammals” (Board of Supervisors of Louisiana State University and …, priority 1997, dated 2004)", "key": {"[1]": {"system": "gonadotropes in the pituitary and neurons in the brain bearing GnRH receptors", "test": "Rats, treatments generally similar to treatments 9-14, immunohistochemical staining (Example 23)", "assay_type": "in vivo, rat", "conditions": "fusion peptide administered", "procedure": "Subsequent experiments were conducted on rats using treatments generally similar to treatments 9-14 above. […] The selective killing of these cells was seen after the GnRH-hecate fusion peptide was administered; and after the administration of GnRH alone, followed 10 minutes later by the administration of hecate alone."}, "GnRH receptor": {"molecular_target": "T1, GnRH receptor (Rattus norvegicus, UniProt P30969)", "T1 construct": "specifically displaced radiolabelled monoiodinated-GnRH from rat pituitary membranes; from tissue; host or cells: rat pituitary membranes", "T1 sequence (P30969 1-327)": "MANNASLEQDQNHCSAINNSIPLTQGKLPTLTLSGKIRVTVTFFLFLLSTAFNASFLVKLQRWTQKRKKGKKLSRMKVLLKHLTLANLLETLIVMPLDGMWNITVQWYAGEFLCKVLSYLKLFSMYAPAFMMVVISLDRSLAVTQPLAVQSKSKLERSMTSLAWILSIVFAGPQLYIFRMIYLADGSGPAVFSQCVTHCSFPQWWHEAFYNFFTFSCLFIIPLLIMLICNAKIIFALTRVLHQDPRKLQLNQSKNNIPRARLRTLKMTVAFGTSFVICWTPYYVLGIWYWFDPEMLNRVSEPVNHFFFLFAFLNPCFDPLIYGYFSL", "test": "Displacement of radiolabelled monoiodinated-GnRH from rat pituitary membranes (Example 24)", "assay_type": "binding", "conditions": "molar basis over a 1000-fold concentration range (n=6); native GnRH = 100%", "excerpt": "We also synthesized D-Lys^6GnRH (SEQ. ID NO. 13), so that hecate could be conjugated to the D-Lys^6, a position that could minimize interference with binding of the GnRH domain to the GnRH receptor. These synthetic peptides specifically displaced radiolabelled monoiodinated-GnRH from rat pituitary membranes."}, "[2]": {"system": "sexually mature female New Zealand rabbits", "test": "Sexually mature female New Zealand rabbits, intravenous GnRH-hecate, GnRH challenge day 46, histology day 47 (Examples 44-46)", "assay_type": "in vivo, rabbit", "procedure": "Seven sexually mature female New Zealand rabbits were injected intravenously with saline containing GnRH-hecate as follows:\nForty-six days later all rabbits were injected intramuscularly with 100 μg GnRH. Blood samples were collected at 0, 1, 4, and 24 hours, and LH and FSH levels in the blood samples were measured by radioimmunoassay. […] The rabbits were sacrificed the next day (day 47) for postmortem histological analysis. […] Ovarian and pituitary weights were reduced by the 10 mg GnRH-hecate treatment."}, "[3]": {"system": "sexually mature female rabbits", "test": "Sexually mature female rabbits, intravenous GnRH-hecate, GnRH challenge day 6, sacrifice day 7 (Examples 47-48)", "assay_type": "in vivo, rabbit", "procedure": "Nine sexually mature female rabbits were injected intravenously with saline containing 0 mg (n=4) (Treatment 47) or 10 mg GnRH-hecate (n=5) (Treatment 48). Rabbits were injected intramuscularly with GnRH on day 6 post-treatment. Blood samples were collected for radioimmunoassay of LH and FSH as described above, and the animals were sacrificed on day 7 post-treatment. […] Again, the effects were more pronounced on GnRH neurons than on staining of pituitary gonadotropes.\nThe number of ovulation sites in rabbits in Examples 47 and 48 treated with 10 mg GnRH-hecate were reduced as compared to saline controls. The mean number of ovulation sites in four saline controls equalled 12.2±5.4, with S.E.M.=2.7. The mean number of ovulation sites in the five rabbits given 10 mg of GnRH-hecate was 3.6±1.1, with S.E.M.=0.5. This difference from control was significant (p=0.025).\nThe “LH surge” (the level of LH at one hour post-GnRH challenge, minus the resting level before challenge) in the four controls was 61.2±16.5 ng/mL, with S.E.M.=8.3; and in the treated group was 49.6±26.1 ng/mL, with S.E.M.=12 (p=0.22). Thus there was a trend towards lower LH levels in the treated group."}, "[4]": {"system": "GnRH receptor-bearing cells in the brain (neurons) and in the pituitary (gonadotrophic cells)", "test": "Summary of the in vivo studies: selectivity of the GnRH-hecate conjugate", "design": "species or system rats and rabbits"}, "[5]": {"system": "pituitary basophilic (gonadotropic) cells", "test": "Adult female rat pituitary gland sections in tissue culture, histology ten hours after treatment (Examples 1-6)", "assay_type": "cell-based", "procedure": "The pituitary gland of an adult female rat was harvested and divided into six sections of approximately equal size. One section was placed in each of six wells containing tissue culture medium at 37° C. A different treatment was applied to each well, as described below. Ten hours after treatment, the tissue from each well was fixed, and the histology of each was examined microscopically."}}, "note": "Where no end group is shown, it is not given here."}
{"substance": "GnRH-hecate: fusion peptide of modified GnRH bonded directly to the lytic peptide hecate, SEQ. ID NO. 3 (QHWSYGLRPGFALALKALKKALKKLKKALKKAL; ends and bridges not checked; also: GnRH part modified, modification not given here)", "values": [{"measurement": "LH and FSH secretion by pituitary cells", "setting": "[1]", "result": "no longer secreted either LH or FSH"}, {"measurement": "selective cell killing seen with immunohistochemical staining", "setting": "[1]; treatments generally similar to treatments 9-14", "result": "selectively killed (1) gonadotropes in the pituitary, and (2) neurons in the brain bearing GnRH receptors"}, {"measurement": "specific displacement of the radiolabelled peptide relative to equimolar concentrations of GnRH", "setting": "GnRH receptor", "result": "123%±4%"}, {"measurement": "LH release in response to 100 μg GnRH i.m.", "setting": "[2]; 5 mg or 10 mg i.v., challenge forty-six days later, radioimmunoassay", "result": "released LH in response to the GnRH"}, {"measurement": "cells staining alpha-MSH in the pituitary", "setting": "[2]; 5 mg or 10 mg i.v., day 47", "result": "increased numbers"}, {"measurement": "cells staining for LH in the pituitary", "setting": "[2]; 5 mg or 10 mg i.v., day 47", "result": "reduced numbers"}, {"measurement": "hippocampus and other areas of the brain containing high concentrations of GnRH", "setting": "[2]; 5 mg or 10 mg i.v., day 47", "result": "not discernibly affected"}, {"measurement": "immunoreactive GnRH in CNS areas normally containing cell bodies", "setting": "[2]; 5 mg or 10 mg i.v., day 47", "result": "faint and diffusely localized"}, {"measurement": "numbers of GnRH-induced ovulations", "setting": "[2]; 5 mg or 10 mg i.v., day 47", "result": "reduced"}, {"measurement": "numbers of corpora lutea", "setting": "[2]; 5 mg or 10 mg i.v., day 47", "result": "reduced"}, {"measurement": "numbers of tertiary follicles", "setting": "[2]; 5 mg or 10 mg i.v., day 47", "result": "reduced"}, {"measurement": "reduction in number of normal individual cell bodies", "setting": "[2]; 5 mg or 10 mg i.v., day 47", "result": "at least 50%"}, {"measurement": "terminal fields, which normally contain the axons of GnRH receptor neurons", "setting": "[2]; 5 mg or 10 mg i.v., day 47", "result": "not stained for GnRH"}, {"measurement": "number of PAS-stained pituitary cells in the pars distalis, relative to control rabbits", "setting": "[2]; 5 mg or 10 mg i.v., day 47, control = 100%", "result": 177, "unit": "%"}, {"measurement": "ovarian weights", "setting": "[2]; 10 mg i.v., day 47", "result": "reduced"}, {"measurement": "pituitary weights", "setting": "[2]; 10 mg i.v., day 47", "result": "reduced"}, {"measurement": "amount of LH released in response to GnRH", "setting": "[3]; 10 mg i.v. (n=5), GnRH i.m. on day 6 post-treatment", "result": "lower in the treated animals than in the controls"}, {"measurement": "mean number of ovulation sites", "setting": "[3]; 10 mg i.v., five rabbits, S.E.M.=0.5, saline controls 12.2±5.4, p=0.025", "result": "3.6±1.1"}, {"measurement": "LH surge (level of LH at one hour post-GnRH challenge, minus the resting level before challenge)", "setting": "[3]; 10 mg i.v., S.E.M.=12, controls 61.2±16.5 ng/mL, p=0.22", "result": "49.6 ± 26.1", "unit": "ng/mL"}, {"measurement": "effects on peripheral tissues", "setting": "[3]; 10 mg i.v., day 7", "result": "No effects"}, {"measurement": "effects on pituitary weight", "setting": "[3]; 10 mg i.v., day 7", "result": "No effects"}, {"measurement": "numbers of GnRH-induced ovulations", "setting": "[3]; 10 mg i.v., day 7", "result": "reduced"}, {"measurement": "numbers of tertiary ovarian follicles", "setting": "[3]; 10 mg i.v., day 7", "result": "reduced"}, {"measurement": "changes in other endocrine and non-endocrine tissues (except for the ovary)", "setting": "[4]", "result": "No changes"}, {"measurement": "changes in pituitary cells that lacked GnRH receptors", "setting": "[4]", "result": "No changes"}, {"measurement": "cytotoxic changes in neurons that lacked GnRH receptors", "setting": "[4]", "result": "No cytotoxic changes"}, {"measurement": "effect on GnRH receptor-bearing cells", "setting": "[4]", "result": "selectively damaged GnRH receptor-bearing cells in the brain (neurons) and in the pituitary (gonadotrophic cells)"}, {"measurement": "histology of pituitary tissue after treatment", "setting": "[5]; 50 μM fusion peptide, ten hours", "result": "Widespread basophilic (gonadotropic) cellular destruction"}, {"measurement": "histology of pituitary tissue after treatment", "setting": "[5]; initial application of fusion peptide, second application two hours later", "result": "virtually destroyed, with only stromal cells remaining"}]}
